# Assay results: patent publication US20230150980A1, “COLLAGEN 1 TRANSLATION INHIBITORS AND METHODS OF USE THEREOF” (Anima Biotech Inc., priority 2020, published 2023)
# System: collagen 1
# Assay: WI-38 collagen 1 inhibition assay (anti-Collagen I immunofluorescence);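 also: minus sign means inactive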
# Assay type: cell-based
# Details: cellular EC50, WI-38 human lung fibroblasts, values are LogEC50 classes
row,Structure (SMILES),COL1 Efficacy (LogEC50)
1,"Cc1ncnc(N2CCN(C3(c4nc5ccccc5o4)CC3)CC2)c1C [compound 321, 2-(1-(4-(5,6-dimethylpyrimidin-4-yl)piperazin-1-yl)cyclopropyl)benzo[d]oxazole]",++ (++: −5 to −6)
2,Cn1cc(N2CCN(Cc3nc4ccccc4o3)CC2)nn1 [compound 322],+ (+: >−5)
3,Cn1cc(N2CCN(Cc3nc4ccc(F)cc4o3)CC2)nn1 [compound 323],−
4,"Cn1ccc(N2CCN(Cc3nc4ccccc4o3)CC2)n1 [compound 324, 2-((4-(1-methyl-1H-pyrazol-3-yl)piperazin-1-yl)methyl)benzo[d]oxazole]",+ (+: >−5)
5,Cn1nccc1N1CCN(Cc2nc3ccccc3o2)CC1 [compound 325],−
6,"Cn1cnc(N2CCN(Cc3nc4ccccc4o3)CC2)n1 [compound 326, 2-((4-(1-methyl-1H-1,2,4-triazol-3-yl)piperazin-1-yl)methyl)benzo[d]oxazole]",+ (+: >−5)
7,"Cc1ncnc(N2CCN(Cc3nc4ccc(F)cc4o3)CC2)c1Cl [compound 327, 2-((4-(5-chloro-6-methylpyrimidin-4-yl)piperazin-1-yl)methyl)-6-fluorobenzo[d]oxazole]",++ (++: −5 to −6)
8,CCn1cc(N2CCN(Cc3nc4ccccc4o3)CC2)nn1 [compound 328],−
9,"Cc1ncnc(N2CCN(Cc3nc4ccc(F)cc4o3)CC2)c1C#N [compound 329, 4-(4-((6-fluorobenzo[d]oxazol-2-yl)methyl)piperazin-1-yl)-6-methylpyrimidine-5-carbonitrile]",++ (++: −5 to −6)
10,"Cc1ncnc(N2CCN(Cc3nc4ccncc4o3)CC2)c1C [compound 330, 2-((4-(5,6-dimethylpyrimidin-4-yl)piperazin-1-yl)methyl)oxazolo[5,4-c]pyridine]",++ (++: −5 to −6)
11,Cn1cc(N2CCN(Cc3cc4ccc(F)cc4[nH]3)CC2)nn1 [compound 331],−
12,c1ccc2oc(CN3CCN(c4c[nH]nn4)CC3)nc2c1 [compound 332],−
13,Cc1ncnc(N2CCN(Cc3nc4ccc(F)cc4o3)CC2)c1C(N)=O [compound 333],−
14,"Cc1ncnc(N2CC3CC2CN3Cc2nc3ccc(F)cc3o2)c1C (stereo not shown) [compound 334, 2-((5-(5,6-dimethylpyrimidin-4-yl)-2,5-diazabicyclo[2.2.1]heptan-2-yl)methyl)-6-fluorobenzo[d]oxazole]",+++ (+++: <−6)
15,"Cc1ncnc(N2CCN(Cc3nc4ccccc4o3)CC2)c1C=O [compound 336, 4-(4-(benzo[d]oxazol-2-ylmethyl)piperazin-1-yl)-6-methylpyrimidine-5-carbaldehyde]",++ (++: −5 to −6)
16,"C#CCCC1(CCOc2cncnc2N2CCN(Cc3cc4ccccc4[nH]3)CC2)N=N1 [compound 337, 2-((4-(5-(2-(3-(but-3-yn-1-yl)-3H-diazirin-3-yl)ethoxy)pyrimidin-4-yl)piperazin-1-yl)methyl)-1H-indole]",++ (++: −5 to −6)
17,"C#CCCC1(CCOc2ccc3cc(CN4CCN(c5ncncc5CC)CC4)[nH]c3c2)N=N1 [compound 338, 6-(2-(3-(but-3-yn-1-yl)-3H-diazirin-3-yl)ethoxy)-2-((4-(5-ethylpyrimidin-4-yl)piperazin-1-yl)methyl)-1H-indole]",+++ (+++: <−6)
18,CC(C)n1cc(N2CCN(Cc3nc4ccccc4o3)CC2)nn1 [compound 339],−
19,Cn1cnc(N2CCN(Cc3nc4ccccc4o3)CC2)c1 [compound 340],−
